“And” between values parts separate entries of the source, which are not always exact repeats. Identical values can stand only once. Toxic doses and inconclusive results are not listed. How the source made its calls: active means survival T/C of 150% or more; inactive means T/C below 125% in these data.
Test system: CD2F1 mice, L1210 leukemia ip, survival T/C
Experiment: NCI In Vivo Anticancer Drug Screen. Data for tumor model L1210 Leukemia (intraperitoneal) in CD2F1 (CDF1) mice
Settings: higher = longer survival
Method in brief: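 Transplantable tumor in mice; compound-treated vs vehicle-treated groups. Read-out = treated/control ratio of the measured endpoint.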

[1] = endpoint: mean survival time, dose: 50.0 mg/kg/injection, schedule: Q01DX009 (ip), vehicle: saline with Tween-80
[2] = endpoint: mean survival time, dose: 100.0 mg/kg/injection, schedule: Q01DX009 (ip), vehicle: saline with Tween-80
[3] = endpoint: mean survival time, dose: 200.0 mg/kg/injection, schedule: Q01DX009 (ip), vehicle: saline with Tween-80
[4] = endpoint: mean survival time, dose: 100.0 mg/kg/injection, schedule: Q04DX002 (ip), vehicle: saline with Tween-80
[5] = endpoint: mean survival time, dose: 200.0 mg/kg/injection, schedule: Q04DX002 (ip), vehicle: saline with Tween-80
[6] = endpoint: mean survival time, dose: 400.0 mg/kg/injection, schedule: Q04DX002 (ip), vehicle: saline with Tween-80
[7] = endpoint: mean survival time, dose: 200.0 mg/kg/injection, schedule: Q04DX003 (ip), vehicle: saline with Tween-80
[8] = endpoint: mean survival time, dose: 100.0 mg/kg/injection, schedule: Q04DX003 (ip), vehicle: saline with Tween-80
[9] = endpoint: mean survival time, dose: 400.0 mg/kg/injection, schedule: Q04DX003 (ip), vehicle: saline with Tween-80
[10] = endpoint: mean survival time, dose: 100.0 mg/kg/injection, schedule: Q04DX003 (ip), vehicle: saline
[11] = endpoint: mean survival time, dose: 25.0 mg/kg/injection, schedule: Q04DX002 (ip), vehicle: saline with Tween-80
[12] = endpoint: mean survival time, dose: 50.0 mg/kg/injection, schedule: Q04DX002 (ip), vehicle: saline with Tween-80
[13] = endpoint: mean survival time, dose: 100.0 mg/kg/injection, schedule: Q01DX001 (ip), vehicle: saline with Tween-80
[14] = endpoint: mean survival time, dose: 400.0 mg/kg/injection, schedule: Q01DX001 (ip), vehicle: saline with Tween-80
[15] = endpoint: mean survival time, dose: 400.0 mg/kg/injection, schedule: Q01DX009 (ip), vehicle: saline with Tween-80
[16] = endpoint: mean survival time, dose: 200.0 mg/kg/injection, schedule: Q01DX001 (ip), vehicle: saline with Tween-80
[17] = endpoint: mean survival time, dose: 75.0 mg/kg/injection, schedule: Q01DX001 (ip), vehicle: saline
[18] = endpoint: mean survival time, dose: 150.0 mg/kg/injection, schedule: Q01DX001 (ip), vehicle: saline
[19] = endpoint: mean survival time, dose: 300.0 mg/kg/injection, schedule: Q01DX001 (ip), vehicle: saline

Measured: T/C

COc1cc(OC)c(NC(=O)Oc2ccc(F)cc2Cl)cc1Cl
inactive: [1] 88 % of control | [2] 100 % of control | [3] 103 % of control

COc1cc2ccnc(Nc3ccccc3)c2cc1OC
inactive: [4] 95 % of control | [5] 95 % of control | [6] 87 % of control

CCCCNC(=O)C1CC2c3c(Br)ccc4c3C(CC2N(C)C1)CN4C(C)=O (centres undefined)
inactive: endpoint: mean survival time, dose: 50.0 mg/kg/injection, schedule: Q04DX003 (ip), vehicle: saline with Tween-80 86 % of control | [7] 91 % of control

O=C1CC2C3C=CC4C3CC2C14 (centres undefined)
inactive: endpoint: mean survival time, dose: 75.0 mg/kg/injection, schedule: Q01DX001 (ip), vehicle: saline with Tween-80 97 % of control | endpoint: mean survival time, dose: 150.0 mg/kg/injection, schedule: Q01DX001 (ip), vehicle: saline with Tween-80 101 % of control

CCCCC(C)(O)CC (centres undefined)
inactive: [2] 93 % of control | [8] 95 % of control | [3] 95 % of control | [7] 105 % of control | [9] 107 % of control

[Cl][Pt+2][Cl].[NH-]C(CC([NH-])c1ccccc1)c1ccccc1 (centres undefined)
inactive: endpoint: mean survival time, dose: 6.25 mg/kg/injection, schedule: Q04DX003 (ip), vehicle: saline with Tween-80 119 % of control and 113 % of control and 115 % of control | endpoint: mean survival time, dose: 12.5 mg/kg/injection, schedule: Q04DX003 (ip), vehicle: saline with Tween-80 121 % of control and 113 % of control and 119 % of control | endpoint: mean survival time, dose: 25.0 mg/kg/injection, schedule: Q04DX003 (ip), vehicle: saline with Tween-80 122 % of control and 113 % of control and 119 % of control

O=C(C[n+]1cccc(C(=O)NCc2ccccc2)c1)Nc1ccc(Cl)cc1
inactive: [10] 94 % of control

O=c1[nH]c2ccccc2c2c3ccccc3nn12
inactive: [11] 113 % of control | [12] 103 % of control | [4] 96 % of control and 100 % of control | [5] 100 % of control and 106 % of control | [6] 103 % of control

CC(C(=O)c1ccccc1)C(c1ccccc1)N1CCCCC1 (centres undefined)
inactive: [13] 92 % of control | [2] 87 % of control | [3] 96 % of control | [14] 90 % of control | [15] 93 % of control

CCCCCCCCCCCCCCC(=O)Nc1ccccc1
inactive: endpoint: mean survival time, dose: 12.5 mg/kg/injection, schedule: Q04DX002 (ip), vehicle: saline with Tween-80 101 % of control | [11] 96 % of control | [12] 86 % of control | [16] 89 % of control

CCOC(=O)c1[nH]c2cccc3c2c1CC(Br)C3=O (centres undefined)
inactive: endpoint: median survival time, dose: 12.5 mg/kg/injection, schedule: Q01DX009 (ip), vehicle: saline with Tween-80 120 % of control | endpoint: median survival time, dose: 25.0 mg/kg/injection, schedule: Q01DX009 (ip), vehicle: saline with Tween-80 109 % of control | endpoint: median survival time, dose: 50.0 mg/kg/injection, schedule: Q01DX009 (ip), vehicle: saline with Tween-80 109 % of control | endpoint: median survival time, dose: 100.0 mg/kg/injection, schedule: Q01DX009 (ip), vehicle: saline with Tween-80 107 % of control

S=c1ssc(-c2ccccc2)c1-c1ccccc1
inactive: [2] 97 % of control | [8] 87 % of control | [3] 100 % of control | [7] 92 % of control | [15] 106 % of control | [9] 93 % of control

N#CC1CCCC1=N (centres undefined)
inactive: endpoint: mean survival time, dose: 12.5 mg/kg/injection, schedule: Q01DX009 (ip), vehicle: saline with Tween-80 94 % of control | endpoint: mean survival time, dose: 25.0 mg/kg/injection, schedule: Q01DX009 (ip), vehicle: saline with Tween-80 97 % of control | endpoint: mean survival time, dose: 100.0 mg/kg/injection, schedule: Q01DX001 (ip), vehicle: saline 110 % of control | endpoint: mean survival time, dose: 200.0 mg/kg/injection, schedule: Q01DX001 (ip), vehicle: saline 104 % of control | endpoint: mean survival time, dose: 400.0 mg/kg/injection, schedule: Q01DX001 (ip), vehicle: saline 111 % of control

NNC(=O)c1cc2ccccc2cc1O
inactive: [2] 97 % of control | [3] 86 % of control | [15] 94 % of control

Clc1ccc(CCc2ccc(Cl)cc2)cc1
inactive: [1] 102 % of control | [2] 98 % of control | [3] 102 % of control

CCOc1cc(C)cc(C(=O)O)c1
inactive: [4] 97 % of control | [5] 90 % of control | [6] 97 % of control

O=NN1CCCCCC1=O
inactive: [17] 108 % of control | [18] 110 % of control | [19] 120 % of control

COc1ccc(C(=O)C(O)c2ccccc2)cc1 (centres undefined)
inactive: endpoint: mean survival time, dose: 100.0 mg/kg/injection, schedule: Q04DX003 (ip), vehicle: other 97 % of control | endpoint: mean survival time, dose: 200.0 mg/kg/injection, schedule: Q04DX003 (ip), vehicle: other 92 % of control | endpoint: mean survival time, dose: 400.0 mg/kg/injection, schedule: Q04DX003 (ip), vehicle: other 92 % of control

Cc1nc(N)[nH]c(=O)c1CCCN(c1ccccc1)S(=O)(=O)c1ccc(N)cc1
inactive: [13] 101 % of control | [16] 89 % of control | [14] 89 % of control

CC([NH-])C[NH-].O=C(O)C(O)C(O)C(O)C(O)CO.O=C(O)C(O)C(O)C(O)C(O)CO.[Pt+2] (centres undefined)
inactive: endpoint: mean survival time, dose: 25.0 mg/kg/injection, schedule: Q04DX003 (ip), vehicle: saline 113 % of control | endpoint: mean survival time, dose: 50.0 mg/kg/injection, schedule: Q04DX003 (ip), vehicle: saline 120 % of control | [10] 123 % of control

CC(C)OC(=O)Nc1ccncc1
inactive: [11] 104 % of control

Cc1c(N)nc(C(CC(N)=O)NCC(N)C(N)=O)nc1C(=O)NC(C(=O)NC(C)C(O)C(C)C(=O)NC(C(=O)NCCc1nc(-c2nc(C(=O)NCCCNCCCc3ccccn3)cs2)cs1)C(C)O)C(OC1OC(CO)C(O)C(O)C1OC1OC(CO)C(O)C(OC(N)=O)C1O)c1cnc[nH]1 (centres undefined)
inactive: endpoint: mean survival time, dose: 0.2 mg/kg/injection, schedule: Q01DX009 (ip), vehicle: water 101 % of control | endpoint: mean survival time, dose: 0.4 mg/kg/injection, schedule: Q01DX009 (ip), vehicle: water 107 % of control | endpoint: mean survival time, dose: 0.8 mg/kg/injection, schedule: Q01DX009 (ip), vehicle: water 98 % of control | endpoint: mean survival time, dose: 1.6 mg/kg/injection, schedule: Q01DX009 (ip), vehicle: water 104 % of control | endpoint: mean survival time, dose: 3.2 mg/kg/injection, schedule: Q01DX009 (ip), vehicle: water 104 % of control | endpoint: mean survival time, dose: 6.25 mg/kg/injection, schedule: Q01DX009 (ip), vehicle: saline 111 % of control | endpoint: mean survival time, dose: 6.4 mg/kg/injection, schedule: Q01DX009 (ip), vehicle: water 107 % of control | endpoint: mean survival time, dose: 12.5 mg/kg/injection, schedule: Q01DX009 (ip), vehicle: saline 103 % of control | endpoint: mean survival time, dose: 25.0 mg/kg/injection, schedule: Q01DX009 (ip), vehicle: saline 108 % of control | endpoint: mean survival time, dose: 50.0 mg/kg/injection, schedule: Q01DX009 (ip), vehicle: saline 105 % of control

N#Cc1cccc2c(S(=O)(=O)O)cccc12
inactive: [8] 98 % of control | [7] 90 % of control | [9] 104 % of control

CC(=O)NC1=C(Sc2ccc(C)cc2)C(=O)c2ccccc2C1=O
inactive: [17] 96 % of control | [18] 98 % of control | [19] 108 % of control

CCCCC(=O)/C=C/Sc1n[nH]c(=O)[nH]c1=O
inactive: endpoint: mean survival time, dose: 12.5 mg/kg/injection, schedule: Q01DX005 (ip), vehicle: distilled water + Tween-80 104 % of control | endpoint: mean survival time, dose: 25.0 mg/kg/injection, schedule: Q01DX005 (ip), vehicle: distilled water + Tween-80 93 % of control | endpoint: mean survival time, dose: 50.0 mg/kg/injection, schedule: Q01DX005 (ip), vehicle: distilled water + Tween-80 90 % of control

O=[N+]([O-])/C=C/c1ccccc1
inactive: endpoint: mean survival time, dose: 20.0 mg/kg/injection, schedule: Q01DX009 (ip), vehicle: saline with Tween-80 106 % of control | endpoint: mean survival time, dose: 20.0 mg/kg/injection, schedule: Q04DX003 (ip), vehicle: saline with Tween-80 102 % of control | endpoint: mean survival time, dose: 40.0 mg/kg/injection, schedule: Q04DX003 (ip), vehicle: saline with Tween-80 96 % of control | endpoint: mean survival time, dose: 80.0 mg/kg/injection, schedule: Q04DX003 (ip), vehicle: saline with Tween-80 94 % of control

CCOC(=N)c1ccccc1
inactive: [13] 94 % of control | endpoint: mean survival time, dose: 100.0 mg/kg/injection, schedule: Q04DX003 (ip), vehicle: Klucel (hydroxypropylcellulose) (HPC) 103 % of control | [16] 97 % of control | endpoint: mean survival time, dose: 200.0 mg/kg/injection, schedule: Q04DX003 (ip), vehicle: Klucel (hydroxypropylcellulose) (HPC) 101 % of control | [14] 102 % of control | endpoint: mean survival time, dose: 400.0 mg/kg/injection, schedule: Q04DX003 (ip), vehicle: Klucel (hydroxypropylcellulose) (HPC) 105 % of control

O=C(O)C(NC1CCCCC1)c1ccccc1 (centres undefined)
inactive: [1] 95 % of control | [2] 103 % of control | [8] 92 % of control | [3] 92 % of control | [7] 93 % of control

CCc1ccc(CC)c(CC)c1CC
inactive: [1] 98 % of control | [2] 95 % of control | [8] 98 % of control | [3] 92 % of control | [7] 104 % of control
